Entries after “also recorded” stand apart in the source; their conditions may differ. Like-named read-outs stand apart in the source and are kept apart here.
Experiments:
[1] = tested on: isolated pancreatic islets of ^EndomKir6.2^V108E mice; assay: Static incubation assay of GSIS with diazoxide; type: cell-based, mouse; settings: 100 µM diazoxide; for Amount of insulin (secreted/total), Mean: 0 µM SpTx1, mean of 6 mice
Experimental: (§1) Pancreatic islets were isolated as previously described ([Doliba et al., 2017]; [Li et al., 2009]). For each experiment, one to four adult mice (8–12 weeks of age) were euthanized by exposing them to an overdose of isoflurane through inhalation and a subsequent cervical dislocation. Following a perfusion through the common bile duct with a Hank’s balanced salt solution (HBSS; GIBCO, 14175) containing collagenase XI (1–2 mg/ml, Millipore-Sigma, C7657) and 1 mM CaCl2, the pancreas was dissected and digested at 37°C for 5 or 15 min. After the digestion, the collagenase in the pancreas homogenate was removed through several washes with HBSS containing 0.3% (wt/vol) bovine serum albumin, and dissociated islets were then hand-picked into a recovery media RPMI1640 (GIBCO, 21870) with the following supplements: 10% fetal bovine serum, 2 mM GlutaMAX, 1 mM sodium pyruvate, penicillin–streptomycin, and 10 mM HEPES titrated to pH 7.4 with NaOH. For the perifusion assay, the digested pancreases samples were subject to a Ficoll gradient purification, and the islets in the enriched fraction were washed with the recovery solution before handpicking islets. During this process, the samples from four mice were pooled to ensure a sufficient number of islets were used to perform assays under compared conditions with the same population in each independent round of experiment. The handpicked islets were placed in 5% CO2 incubator at 37°C to rest overnight prior to the static incubation assay or 2 days prior to the perifusion assay.
For insulin secretion in each independent static incubation assays, pancreatic islets from one mouse (8–12 weeks of age) were used as follows. […] Washed islets were equilibrated in the final wash step for 1 hr at 5% CO2 and 37°C. Using a previous study as reference ([Remedi et al., 2009]) and on the basis of the amount of insulin secretion and the sensitivity of insulin assay, we chose to use 5–10 islets in each assay. […]

[2] = tested on: ^Rosa26mKir6.2^NDM-V108E mice; assay: Plasma insulin assay (ELISA); type: in vivo, mouse; settings: glibenclamide 40 mg/kg, single bolus
Text: (§2) In ^Rosa26mKir6.2^NDM and ^Rosa26mKir6.2^NDM-V108E mice, the expression of mutant Kir6.2 activity occurred in the pancreas upon the excision of the Neo/WSS cassette by the tamoxifen-dependent Cre recombinase ([Remedi et al., 2009]). Exposure to tamoxifen permitted the translocation of Cre recombinase from the cytoplasm to the nucleus in order to perform the excision between loxP sites within the targeted Rosa26 locus. To induce the expression of mutant Kir6.2 activity and consequently the diabetic phenotype in these mutant mice (8–12 weeks of age), corn oil containing tamoxifen (75 mg/kg body weight; prepared as described below) was injected intraperitoneally for five consecutive days. Injection sites were sealed with a tissue adhesive (3M Vetbond) to prevent leakage of the injected liquid.
(§3) We evaluated the blood glucose levels of tested mice (8–12 weeks of age) using a digital glucometer (Clarity Diagnostics, BG1000). Induced diabetic mice were tested daily starting from the day after the final administration of tamoxifen until their blood glucose levels reached above 600 mg/dl. […] At each given time point, the glucose level of a blood drop obtained from the cut tail tip was measured twice using a glucometer. […]

[3] = tested on: ^Rosa26mKir6.2^NDM-V108E mice; assay: Blood glucose monitoring of overnight-fasted diabetic mice; type: in vivo, mouse; settings: glibenclamide 40 mg/kg, single bolus
Text: as §2, §3

[4] = tested on: isolated pancreatic islets of ^EndomKir6.2^V108E mice; type: cell-based, mouse
Experimental: as §1
For each perifusion experiment ([Doliba et al., 2017]), pancreatic islets from four mice (8–12 weeks of age) were used in the following manner. […] At the end of each experiment, the islets were recovered and placed in acidified ethanol to extract total insulin content as described above. Insulin in the samples was assayed using an insulin-specific radioimmunoassay kit (RI-13K, Millipore). For each condition, the study was performed three to six times. […] No experiments were excluded.

wild-type mice = assay: Blood glucose monitoring of overnight-fasted mice; type: in vivo, mouse; settings: glibenclamide 40 mg/kg body weight, single intraperitoneal application; end of 2-hr observation period
Experimental: We evaluated the blood glucose levels of tested mice (8–12 weeks of age) using a digital glucometer (Clarity Diagnostics, BG1000). Induced diabetic mice were tested daily starting from the day after the final administration of tamoxifen until their blood glucose levels reached above 600 mg/dl. Following overnight (16 hr) fasting, blood glucose monitoring and plasma collection were then performed using specified mouse lines at designated time points over a 2-hr observation period in the next morning. […] At each given time point, the glucose level of a blood drop obtained from the cut tail tip was measured twice using a glucometer. For any case where the level was above 600 mg/dl, the blood sample was diluted by an equal volume of the phosphate-buffer solution titrated to pH 7.3 before the glucose level was remeasured for two times. Additionally, four to five drops (~12 μl) of tail vein blood were collected at individual specified time points into a tube containing K2EDTA (1.5 mg/ml blood) and centrifuged at 2000 × g for 5 min at 4°C. 5 μl of the resulting plasma was frozen in liquid nitrogen, stored at −20°C, and assayed using a colorimetric insulin-detecting ELISA kit (CrystalChem, 90080) within a week. Mice were grouped according to genotypes. Using a previous study as reference ([Remedi et al., 2009]), we determined the number of mice for individual groups. […]

[5] = tested on: β cells in isolated pancreatic islets from ^EndomKir6.2^V108E mice; assay: Membrane potential (Vm), perforated whole-cell patch clamp; type: cell-based, mouse; settings: glibenclamide; nominal glucose-free condition
Experimental: (§4) Electrophysiological membrane potential (Vm) measurements from individual cells in isolated but intact islets cultured on glass coverslips were performed using the perforated whole-cell patch-clamp method as described ([Yang et al., 2021]). Wax-coated electrodes (G85150T, Warner) were back filled with the intracellular solution containing (in mM): 76 K2SO4, 10 KCl, 10 NaCl, 6 MgCl2, 30 mannitol, 30 HEPES, where pH was titrated to 7.2 at 35°C with N-methyl-d-glucamine (NMG). The tip of the pipette was filled with this solution and the remainder was back filled with the same solution plus β-escin (6 or 8 µM). The free Mg^2+ concentration of this solution, taking the divalent cation-chelating action of SO4^2− into consideration, is estimated to be about 2 mM. The extracellular solution contained (in mM): 135 NaCl, 4 KCl, 2 CaCl2, 2 MgCl2, 10 HEPES, where pH was titrated to 7.4 at 35°C with NMG. Glucose was added to this solution as required and the osmolarity was adjusted to ~300 mOsm with mannitol. All salts were from Millipore-Sigma. Using the solutions described above, the initial input resistance of the electrode was typically 4–8 MΩ. The electrophysiological recordings were performed under a continuous perfusion condition, 0.3–0.4 ml/min (Instech), at ~35°C (TC-124A and TC-344B Warner). Islets were equilibrated in the recording chamber for 10–15 min before measurements were made. Adequate whole-cell access was achieved typically within 5–10 min.
(§5) The output of the patch-clamp amplifier (Axopatch 200B, Molecular Devices) was digitized at 2 kHz and stored for later analysis using Igor Pro (v8 or v9, Wavemetrics). The liquid junction potential has been subtracted from the results. To estimate the average Vm values under different conditions, the Vm traces were digitally Gaussian filtered at 0.1 Hz and the filtered data points in the last 50 s of a segment of interest were averaged. The filtered traces are superimposed on the illustrative original traces in the figures where appropriate. The variations in data values reflected both biological variability and technical errors (Figures 2D–F–6D–F). No data, which were successfully recorded over sufficient durations that allowed for adequate examination the membrane potential under the various specified conditions, were excluded.

[6] = tested on: β cells in isolated pancreatic islets from wild-type mice; assay: as above; type: cell-based, mouse
Experimental: as §4, §5

## CC1=NS(=O)(=O)c2cc(Cl)ccc2N1 [diazoxide]
[1]; 16.7 mM glucose
  effect on insulin secretion: lowered the insulin secretion in 16.7 mM glucose to the baseline level
  Amount of insulin (secreted/total), Mean: 0.2327
[1]; 3 mM glucose
  Amount of insulin (secreted/total), Mean: 0.2568

## COc1ccc(Cl)cc1C(=O)NCCc1ccc(S(=O)(=O)NC(=O)NC2CCCCC2)cc1 [glibenclamide]
[2]
  effect on plasma insulin: nor caused a rise of insulin in the plasma
[3]
  effect on elevated blood glucose level: neither markedly lowered the elevated blood glucose level
[4]; 1 μM glibenclamide
  insulin secretion after removal of inhibitor and return to 3 mM glucose: the elevated insulin secretion largely persisted
[4]; 1 μM glibenclamide with glucose raised from 3 to 10 mM
  effect on insulin secretion: yielded insulin secretion much greater than that from elevated glucose alone
[4]; 1 μM glibenclamide, 3 mM glucose, added 10 min before raising glucose
  insulin secretion in nonstimulating glucose (primary secretagogue): triggered sizable secretion of insulin; also recorded: stimulated sizable secretion of insulin
[4]; 1 μM glibenclamide, 16.7 mM glucose
  effect on insulin secretion: caused much greater secretion of insulin than it did in the absence of glibenclamide
wild-type mice
  effect on blood glucose level: lowered the blood glucose level of wild-type mice by half
[5]
  effect on Vm: elicited action potentials
[6]; 0.2 uM Glibenclamide in 5 mM Glucose, islet 1
  Vm: -0.05335 V
[6]; 0.2 uM Glibenclamide in 5 mM Glucose, islet 2
  Vm: -0.03306 V
[6]; 0.2 uM Glibenclamide in 5 mM Glucose, islet 3
  Vm: -0.0403 V
[6]; 0.4 uM Glibenclamide in 0 mM Glucose, islet 1
  Vm: -0.05043 V
[6]; 0.4 uM Glibenclamide in 0 mM Glucose, islet 2
  Vm: -0.02061 V
[6]; 0.4 uM Glibenclamide in 0 mM Glucose, islet 3
  Vm: -0.04501 V
[6]; 0.4 uM Glibenclamide in 0 mM Glucose, islet 4
  Vm: -0.03684 V
[6]; 0.4 uM Glibenclamide in 0 mM Glucose, islet 5
  Vm: -0.05294 V
[6]; 0.4 uM Glibenclamide in 0 mM Glucose, islet 6
  Vm: -0.05777 V
[6]; 0.4 uM Glibenclamide in 8 mM Glucose, islet 1
  Vm: -0.04669 V
[6]; 0.4 uM Glibenclamide in 8 mM Glucose, islet 2
  Vm: -0.04799 V
[6]; 0.4 uM Glibenclamide in 8 mM Glucose, islet 3
  Vm: -0.04272 V
[6]; 0.4 uM Glibenclamide in 8 mM Glucose, islet 5
  Vm: -0.05311 V
[6]; 0.4 uM Glibenclamide in 8 mM Glucose, islet 6
  Vm: -0.0321 V
[6]; glibenclamide 0.4 µM, glucose 0 mM
  effect on Vm: dramatically depolarized Vm and triggered a train of action potentials

From article PMC8880991 (eLife, 2022)
